The text below walks through data of patent publication US6784165B1, “Treatment of heart rhythm disturbances with N6-substituted-5′-(N-substituted) carboxamidoadenosines” (Aderis Pharmaceuticals, Inc., priority 1999, dated 2004).

Structures are written as SMILES. pEC50: −log10 of the molar value. Where two headings read alike, the source gives them in different places.

The target in data set [1] is T1, adenosine A1 receptor (Rattus norvegicus, UniProt P25099).
T1 sequence (P25099 1-326): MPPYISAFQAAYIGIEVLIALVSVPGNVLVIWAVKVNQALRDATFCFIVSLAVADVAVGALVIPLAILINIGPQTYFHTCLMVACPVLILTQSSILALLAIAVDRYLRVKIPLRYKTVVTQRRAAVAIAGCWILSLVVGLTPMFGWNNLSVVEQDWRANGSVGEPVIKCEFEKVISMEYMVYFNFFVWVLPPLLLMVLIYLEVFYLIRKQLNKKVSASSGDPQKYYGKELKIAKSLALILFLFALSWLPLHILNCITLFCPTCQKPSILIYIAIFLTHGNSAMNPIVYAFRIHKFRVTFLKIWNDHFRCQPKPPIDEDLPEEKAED
In words: Negative inotropic response in electrically stimulated rat isolated left atria (isoproterenol-stimulated). Further details: from tissue; host or cells: whole animal (conscious Sprague-Dawley rats). Conditions: plateau negative inotropic response, 1 Hz, isoproterenol 10^−8 M. From the text:
(§1) Concentration dose-effect curve data were fitted to a sigmoid curve using Graphpad PRIZM™ software to obtain the concentration or dose of test compound that produces 50% of the maximal obtainable response, in vitro EC50 or in vivo ED50 values, for activation of the adenosine A1 receptor. Responses measured to each dose were the plateau negative inotropic response to cumulative additions of test compound in the isolated left atria and the peak bradycardia in response to bolus intravenous injections of test compound in conscious rats. Oral bioavailability was estimated from pharmacodynamic responses using the expression: (Response AUCoral/Response AUCiv)(Doseiv/Doseoral), where Response AUC is the area under the curve for test compound-induced bradycardia over time.
Male Sprague-Dawley rats weighing 200-350 grams were sacrificed and the hearts rapidly removed and placed in a warmed Krebs-Henseleit buffer solution. The left atria were dissected free from the hearts and suspended in 30 mL jacketed isolated organ baths filled with Krebs-Henseleit buffer, oxygenated with 95% O2/5% CO2 and maintained at 37° C. Tissues were connected to a force displacement transducer under a resting tension of 1 gram. Atria were stimulated electrically at 1 Hz, 1 msec duration and supramaximal voltage to produce regular contractions of tissue.
Adenosine A1 agonists were added to the baths at increasing cumulative concentrations until a maximal decrease in the force of contraction was obtained. Because adenosine A1 agonists have only a small direct negative inotropic action in rat atria, it was necessary to stimulate β-adrenergic receptors to produce positive inotropy in order to maximize the negative intropic response and thereby facilitate measurement. Under these conditions, adenosine A1 agonists acting at A1 receptors indirectly reduce the β-adrenergic mediated positive inotropy. Accordingly, the β-adrenergic agonist isoproterenol (10^−8 M) was added to the organ baths approximately 15 minutes before the addition of the adenosine A1 agonist.

The nature of data set [2]: Oral bioavailability estimated from bradycardia AUC oral vs intravenous in conscious rats. Format: in vivo, rat. Conditions: for bioavailability: male, Sprague-Dawley, rat, in vivo.
Excerpt: as §1
(§2) Male Sprague-Dawley rats were anesthetized with sodium pentobarbital 50 mg/kg i.p., and indwelling catheters were surgically implanted in the carotid artery and jugular vein two days prior to each experiment. During all subsequent experiments, rats were conscious and unrestrained. The carotid artery cannula was attached to a pressure transducer and blood pressure was recorded continuously throughout each experiment using a Grass polygraph. Heart rate was derived from the blood pressure signal using a Grass tachygraph. The measured parameters were allowed from 30 to 90 minutes to stabilize before the administration of test compound.
(§3) Test compounds were administered either by oral gavage using a curved, bulbed oral dosing cannula, or by intravenous administration via the jugular vein indwelling catheter. Rats dosed orally were fasted overnight before dosing, with water available ad libitum. Because the heart rate responses following intravenous administration of test compound rapidly returned to baseline, more than one dose of test compound could be administered to each rat. However, the responses to oral administration of test compounds were of a prolonged duration and therefore only a single dose could be administered to each rat.
A comparison of the area under the bradycardia vs. time curve (AUC) following intravenous administration with the AUC following oral administration was used as a measure of oral bioavailability.

In data set [3] the target is T1, adenosine A1 receptor. The experiment in a line: Peak bradycardia after bolus intravenous injection in conscious rats. On the set-up: from tissue; host or cells: whole animal (conscious Sprague-Dawley rats). Conditions: bolus intravenous injections. Format: in vivo.
Excerpt: as §1, §2, §3

On to `O=C(NCCO)[C@H]1O[C@@H](n2cnc3c(NC4CCCC4)ncnc32)[C@H](O)[C@@H]1O` [B], for which the pEC50 at adenosine A1 receptor [1] is 7.95. Also, the bioavailability in data set [2] is 8.4%. For the same molecule, at adenosine A1 receptor [3] (rat, read-out: ED50), the ED50 came to 0.0074 µmol/kg.
For `CCNC(=O)[C@H]1O[C@@H](n2cnc3c(NC(CC)CC)ncnc32)[C@H](O)[C@@H]1O` [I, N^6-(3-pentyl)-5′-(N-ethyl)carboxamidoadenosine], in that order: 8.10, 20% and 0.0079 µmol/kg.
For `CNC(=O)[C@H]1O[C@@H](n2cnc3c(NC4CCCC4)ncnc32)[C@H](O)[C@@H]1O` [D, N^6-cyclopentyl-5′-(N-methyl)carboxamidoadenosine], in that order: 7.72, 20% and 0.0039 µmol/kg.
The matching figures for `CCCNC(=O)[C@H]1O[C@@H](n2cnc3c(NC4CCCC4)ncnc32)[C@H](O)[C@@H]1O` [G]: 7.60, 14% and 0.0323 µmol/kg.
Regarding `O=C(NC1CC1)[C@H]1O[C@@H](n2cnc3c(NC4CCCC4)ncnc32)[C@H](O)[C@@H]1O` [C, N^6-cyclopentyl-5′-(N-cyclopropyl)carboxamidoadenosine], the pEC50 on adenosine A1 receptor [1] was 8.42. In addition, the bioavailability in data set [2] is 38%. The ED50 at adenosine A1 receptor [3] (rat, read-out: ED50) worked out at 0.0093 µmol/kg.
For `CC(C)(C)NC(=O)[C@H]1O[C@@H](n2cnc3c(NC4CCCC4)ncnc32)[C@H](O)[C@@H]1O` [F, N^6-cyclopentyl-5′-(N-t-butyl)carboxamidoadenosine], in that order: 7.14, 34% and 0.363 µmol/kg.
For `CC(C)NC(=O)[C@H]1O[C@@H](n2cnc3c(NC4CCCC4)ncnc32)[C@H](O)[C@@H]1O` [E], in that order: 7.96, 28% and 0.0034 µmol/kg.
The molecule `O=C(NCCO)C1OC(n2cnc3c(NC4CC5CCC4C5)ncnc32)C(O)C1O` (stereo not drawn) [H] had a pEC50 on adenosine A1 receptor [1] of 8.42. For the same molecule, the “Oral Bioavailability” value in data set [2] is 2.3%. The ED50 at adenosine A1 receptor [3] is 0.0034 µmol/kg.
With `CCC(CC)Nc1ncnc2c1ncn2[C@@H]1O[C@H](C(=O)NCCO)[C@@H](O)[C@H]1O` [J], the pEC50 on adenosine A1 receptor [1] was 7.66. The bioavailability in data set [2] was 9.9%. The ED50 at adenosine A1 receptor [3] (rat, read-out: ED50) turned out to be 0.0083 µmol/kg.

As a reminder, the pEC50 is −log10 of the EC50, conventionally taken in molar units. Low readings indicate a high EC50, high ones a low EC50. What is called bioavailability is the share of a dose that reaches the circulation, judged against a reference dose that is usually intravenous. As usually defined, the ED50 is the midpoint of the dose-response relation.
